Test results as given in paper PMC6429200, “Synthesis and Broad Antiviral Activity of Novel 2-aryl-isoindolin-1-ones towards Diverse Enterovirus A71 Clinical Isolates” (Molecules, 2019).

Columns and labels:
[1] = system: EV-A71 strain ShenZhen98 (SZ98); assay: CPE inhibition assay for anti-EV-A71 in Vero cells, Shenzhen98 strain; type: cell-based, Enterovirus 71 (EV-A71); details: for Shenzhen98 SI: CC50/EC50; for EC50: Enterovirus A, EVA71, Vero cells, 100TCID50, 48 h
Method: (§1) An in-vitro antiviral assay was established using the Africa monkey kidney cell line Vero which was infected with different EV-A71 clinical isolates (BrCr, H, Shenzhen98 and Jiangsu52). A total of 24 synthetic compounds were initially screened in such an assay to determine their inhibitory effect on virus replication at 3-fold diluted concentrations serial (400~0.18 μM). The 50% effective concentration (EC50) of each compound was calculated according to its inhibitory rate values with the Reed–Muench method. The 50% cytotoxic concentration (CC50) was defined as the concentration that inhibited 50% cellular growth in comparison with the controls. The selectivity index (SI) was calculated as CC50/EC50. […] Generally, the EV-A71 H strain was less sensitive to most of the active compounds as compared to the other virus strains.
(§2) EV-A71 strain ShenZhen98 (SZ98) was isolated from the throat swab sample of an HFMD case which occurred in 1998 in China. This was kindly provided by Dr. Qi Jin, Institute of Pathogen Biology, Chinese Academy of Medical Science and Peking Union Medical School, Beijing, China. EV-A71 strains BrCr (VR-1775) and H (VR-1432) were purchased from the ATCC. The EV-A71 strain JS52 was a kind gift from Dr. Xiangzhong Ye, Beijing Wantai Biological Pharmacy Enterprise Co., Ltd. EV-A71 were all passaged in Vero cells.
(§3) The anti-EV-A71 activity of compounds was determined by the CPE inhibition method. Briefly, cells (3 × 10^4 cells/well) were plated into 96-well culture plates for incubation for 24 h. The medium was then removed and cells were infected with EV-A71 with 100TCID50 (50% tissue culture infective doses) in serum-free medium for 1 h at 37 °C. Then, the unbound viruses were removed and various concentrations of compounds were supplemented and incubated for another 48 h. The EC50 was determined by the Reed–Muench method. The selectivity index was calculated as the ratio of CC50/EC50 [15].

[2] = Cytotoxicity assay (CPE) on Vero cells; type: cell-based; details: African green monkey; Vero cells, 3 days of incubation, Reed–Muench; read-out: CC50
Method: as §1
African green monkey kidney (Vero) cells were purchased from the American Type Culture Collection (ATCC) and were cultured in minimum essential medium (MEM) supplemented with 10% fetal bovine serum (FBS) (GIBCO) and antibiotics (100 U/mL penicillin and […] streptomycin) at 37 °C in a 5% CO2 incubator.
The cytotoxic effects of compounds on Vero cells were detected by the cytopathic effect (CPE) assay. Briefly, cells (3 × 10^4 cells/well) were seeded into 96-well culture plates and incubated overnight. Then, the medium was removed and different concentrations of compounds were applied in triplicate. After 3 days of incubation, the CC50 was defined as the concentration that inhibited 50% cellular growth in comparison with the untreated controls, as calculated by the Reed–Muench method.

[3] = system: EV-A71 strain Jiangsu52 (JS52); assay: CPE inhibition assay for anti-EV-A71 in Vero cells, Jiangsu52 strain; type: cell-based, Enterovirus 71 (EV-A71); details: for Jiangsu52 SI: CC50/EC50; for EC50: Enterovirus A, EVA71, Vero cells, 100TCID50, 48 h
Method: as §1, §2, §3

EV-A71 strain BrCr = assay: CPE inhibition assay for anti-EV-A71 in Vero cells, BrCr strain; type: cell-based, Enterovirus 71 (EV-A71); details: for BrCr SI: CC50/EC50; for EC50: Enterovirus A, EVA71, Vero cells, 100TCID50, 48 h
Method: as §1, §2, §3

EV-A71 strain H = assay: CPE inhibition assay for anti-EV-A71 in Vero cells, H strain; type: cell-based, Enterovirus 71 (EV-A71); details: for H SI: CC50/EC50; for EC50: Enterovirus A, EVA71, Vero cells, 100TCID50, 48 h
Method: as §1, §2, §3

Row | EC50 [1] | EC50 [3] | EC50 (EV-A71 strain BrCr) | EC50 (EV-A71 strain H) | SMILES | Shenzhen98 SI [1] | CC50 at 3 days [2] | Jiangsu52 SI [3] | BrCr SI (EV-A71 strain BrCr) | H SI (EV-A71 strain H)
1 | 7.87 ± 0.91 µM | 7.87 ± 0.91 µM | 7.87 ± 0.91 µM | 28.7 ± 4.07 µM | O=C1c2ccccc2CN1c1ccccc1 [Compound A1, 22-phenylisoindolin-1-one] | 47 | 370 ± 39.8 µM | 47 | 47 | 13
2 | 1.39 ± 0.17 µM | 1.27 ± 0.01 µM | 1.27 ± 0.01 µM | 1.81 ± 0.21 µM | O=C1c2ccccc2CN1c1ccc(Cl)cc1Cl [Compound A5, 2-(2,4-dichlorophenyl)isoindolin-1-one] | 49 | 68.4 ± 5.72 µM | 54 | 54 | 38
3 | 13 ± 2 µM | 12.6 ± 2.22 µM | 12.6 ± 2.22 µM |  | COc1cc(N2Cc3ccccc3C2=O)cc(OC)c1OC [Compound A8, 2-(3,4,5-trimethoxyphenyl)isoindolin-1-one] | / (/ represents selectivity index (SI) value of less than 10) | 76.5 ± 13.1 µM | / (/ represents selectivity index (SI) value of less than 10) | / (/ represents selectivity index (SI) value of less than 10) | / (/ represents selectivity index (SI) value of less than 10)
4 | 17 ± 2.92 µM | 17 ± 2.92 µM | 17 ± 2.92 µM |  | O=C1c2ccccc2CN1c1ccc2ccncc2c1 [Compound A9, 2-(isoquinolin-7-yl)isoindolin-1-one] | / (/ represents selectivity index (SI) value of less than 10) | 96.5 ± 9.34 µM | / (/ represents selectivity index (SI) value of less than 10) | / (/ represents selectivity index (SI) value of less than 10) | / (/ represents selectivity index (SI) value of less than 10)
5 | 30.3 ± 2.38 µM | 30.3 ± 2.38 µM | 27 ± 3.38 µM | 24.4 ± 9.37 µM | O=C(c1ccc(N2Cc3ccccc3C2=O)cc1)N1CCOCC1 [Compound A12, 2-(4-(morpholin-4-carbonyl)phenyl)isoindolin-1-one] | / (/ represents selectivity index (SI) value of less than 10) | 180 ± 27.3 µM | / (/ represents selectivity index (SI) value of less than 10) | / (/ represents selectivity index (SI) value of less than 10) | / (/ represents selectivity index (SI) value of less than 10)
6 | 18.4 ± 2.41 µM | 20.6 ± 1.01 µM | 18.4 ± 2.41 µM |  | CCCNc1ccc2c(c1)CN(c1ccc(OC)cc1)C2=O [Compound B3, 2-(4-methoxyphenyl)-5-(propylamino)isoindolin-1-one] | 13 | 231 µM | 11 | 13 | / (/ represents selectivity index (SI) value of less than 10)

The remaining lines, values behind:

Row | SMILES | EC50 [1] | EC50 [3] | EC50 (EV-A71 strain BrCr) | EC50 (EV-A71 strain H) | Shenzhen98 SI [1] | CC50 at 3 days [2] | Jiangsu52 SI [3] | BrCr SI (EV-A71 strain BrCr) | H SI (EV-A71 strain H)
7 | COc1ccc(N2Cc3ccc(N)cc3C2=O)cc1 [Compound 4, 6-amino-2-(4-methoxyphenyl)isoindolin-1-one] | 5.27 ± 0.44 µM | 5.74 ± 0.54 µM | 5.27 ± 0.44 µM | 11.7 ± 2.1 µM | 43 | 231 µM | 40 | 44 | 19
8 | COc1ccc(N2Cc3cc(N)ccc3C2=O)cc1 [Compound 5, 5-amino-2-(4-methoxyphenyl)isoindolin-1-one] | 9.12 ± 0.76 µM | 9.7 ± 0.76 µM | 9.12 ± 0.76 µM | 16.2 ± 1.9 µM | 17 | 159 ± 17.1 µM | 16 | 17 | 
9 | O=C1c2ccccc2CN1c1ccc(F)cc1 [Compound A2, 2-(4-fluorophenyl)isoindolin-1-one] | 4.43 ± 0.68 µM | 3.74 ± 0.8 µM | 3.23 ± 0.25 µM | 4.43 ± 0.88 µM | 49 | 218 ± 22.3 µM | 58 | 67 | 49
10 | O=C1c2ccccc2CN1c1ccc(-c2ccccc2)cc1 [Compound A6, 2-([1,1’-biphenyl]-4-yl)isoindolin-1-one] |  |  |  |  | / (/ represents selectivity index (SI) value of less than 10) | 218 ± 22.3 µM | / (/ represents selectivity index (SI) value of less than 10) | / (/ represents selectivity index (SI) value of less than 10) | / (/ represents selectivity index (SI) value of less than 10)
11 | O=C(O)c1ccc(N2Cc3ccccc3C2=O)cc1 [Compound A10, 4-(1-oxoisoindolin-2-yl)benzoic acid] | 14.6 ± 2.24 µM | 14.6 ± 2.24 µM | 12.9 ± 2.24 µM | 13.7 ± 5.71 µM | / (/ represents selectivity index (SI) value of less than 10) | 46.2 µM | / (/ represents selectivity index (SI) value of less than 10) | / (/ represents selectivity index (SI) value of less than 10) | / (/ represents selectivity index (SI) value of less than 10)
12 | CN1CCN(C(=O)c2ccc(N3Cc4ccccc4C3=O)cc2)CC1 [Compound A11, 2-(4-(4-methylpiperazine-1-carbonyl)phenyl)isoindolin-1-one] |  |  |  |  | / (/ represents selectivity index (SI) value of less than 10) | 115 µM | / (/ represents selectivity index (SI) value of less than 10) | / (/ represents selectivity index (SI) value of less than 10) | / (/ represents selectivity index (SI) value of less than 10)
13 | CCCN(CCC)c1ccc2c(c1)C(=O)N(c1ccc(OC)cc1)C2 [Compound B2, 6-(dipropylamino)-2-(4-methoxyphenyl)isoindolin-1-one] | 34.6 ± 6.54 µM | 40.3 ± 5.54 µM | 34.6 ± 6.54 µM |  | / (/ represents selectivity index (SI) value of less than 10) | 257 ± 35.3 µM | / (/ represents selectivity index (SI) value of less than 10) | / (/ represents selectivity index (SI) value of less than 10) | / (/ represents selectivity index (SI) value of less than 10)
14 | CCCN(CCC)c1ccc2c(c1)CN(c1ccc(OC)cc1)C2=O [Compound B4, 5-(dipropylamino)-2-(4-methoxyphenyl)isoindolin-1-one] |  |  |  |  | / (/ represents selectivity index (SI) value of less than 10) | 124 ± 12.6 µM | / (/ represents selectivity index (SI) value of less than 10) | / (/ represents selectivity index (SI) value of less than 10) | / (/ represents selectivity index (SI) value of less than 10)
15 | CCC(=O)Nc1ccc2c(c1)C(=O)N(c1ccc(OC)cc1)C2 [Compound C1, N-(2-(4-methoxyphenyl)-3-oxoisoindolin-5-yl)propionamide] | 5.85 ± 0.6 µM | 5.91 ± 0.65 µM | 5.85 ± 0.6 µM | > 44.4 µM | 26 | 152 ± 27 µM | 25 | 26 | / (/ represents selectivity index (SI) value of less than 10)
16 | CCC(=O)Nc1ccc2c(c1)CN(c1ccc(OC)cc1)C2=O [Compound C2, N-(2-(4-methoxyphenyl)-1-oxoisoindolin-5-yl)propionamide] |  |  |  |  | / (/ represents selectivity index (SI) value of less than 10) | 231 µM | / (/ represents selectivity index (SI) value of less than 10) | / (/ represents selectivity index (SI) value of less than 10) | / (/ represents selectivity index (SI) value of less than 10)
17 | CCC(=O)Nc1ccc2c(c1)CN(c1ccc(C)cc1)C2=O [Compound C3, N-(1-oxo-2-(p-tolyl)isoindolin-5-yl)propionamide] |  |  |  |  | / (/ represents selectivity index (SI) value of less than 10) | 113 ± 17.2 µM | / (/ represents selectivity index (SI) value of less than 10) | / (/ represents selectivity index (SI) value of less than 10) | / (/ represents selectivity index (SI) value of less than 10)
